Like-named read-outs stand apart in the source and are kept apart here.
How the values were obtained:
[1] = system: CYP2C9; details: cited from earlier work
[2] = ref Pfizer Inc, data on file, cited from earlier work
[3] = system: QTc interval; details: cited from earlier work
[4] = system: cardiac repolarization in healthy subjects
[5] = system: healthy subjects; experiment: Safety assessments; assay type: in vivo, human; details: for Fatigue / Headache / Insomnia / TEAEs considered treatment related / Total TEAEs reported / Subjects reporting ≥1 AE: during treatment period; for Subjects reporting ≥1 AE: sertraline n = 52, moxifloxacin n = 50
[6] = system: CYP1A2; details: cited from earlier work
[7] = system: Kv1.5; details: Chinese hamster ovary cells; cited from earlier work
[8] = system: CYP2D6; details: cited from earlier work
[9] = cited from earlier work
[10] = system: cardiac repolarization in healthy subjects; experiment: PK/PD exposure‐response analysis of QTcF; details: for Estimated slope of the regression for ∆QTcF versus plasma concentration: separate PK/PD models for sertraline and N‐desmethylsertraline concentration
[11] = system: CYP2C19; details: cited from earlier work
[12] = assay type: in vivo, human; details: for Cmin, geometric mean (%CV): 0‐24 h after last dose; for AUC(0-t): AUClast; for MR (metabolite‐to‐parent ratio for AUC24), geometric mean (%CV): corrected for molecular weight
[13] = cited from earlier work; remark: listed apart in the source
[14] = system: extracellular 5‐HT levels; details: compared with sertraline; cited from earlier work
[15] = patients admitted for sertraline overdose (>200 mg)
[16] = 1 h after dosing on day 14, sertraline 400 mg/day
[17] = 2 h after dosing on day 14, sertraline 400 mg/day
[18] = 3 h after dosing on day 14, sertraline 400 mg/day
[19] = 4 h after dosing on day 14, sertraline 400 mg/day
[20] = 5 h after dosing on day 14, sertraline 400 mg/day
[21] = 6 h after dosing on day 14, sertraline 400 mg/day
[22] = 8 h after dosing on day 14, sertraline 400 mg/day
[23] = 12 h after dosing on day 14, sertraline 400 mg/day
[24] = 24 h after dosing on day 14, sertraline 400 mg/day
[25] = categorical analysis of maximum postdose QTcF
[26] = Day 1, sertraline 50 mg single dose, plasma, healthy subjects
[27] = Day 14, sertraline 400 mg/day multiple dose
[28] = human, plasma, 400 mg/day, arithmetic mean ± SD, Day 14, sertraline 400 mg/day multiple dose
[29] = Day 1, sertraline 50 mg single dose

CN[C@H]1CC[C@@H](c2ccc(Cl)c(Cl)c2)c2ccccc21 [sertraline]
CYP2C9 inhibitor class [1]: weak inhibitor
Cmax at 400 mg/day relative to Cmax at 200 mg/day ([2]; day 14): approximately 3 times
Mean Cmax ([2]; sertraline 400 mg/day, day 14, healthy subjects): 282 ng/mL
Incidence of maximum QTcB interval prolongation (males >450 ms; females >460 ms) ([3]; ECG database, dosing and concomitant medications unknown): 7.9%
Increase in QT/QTc interval ([3]; clinical trials, sertraline 50‐200 mg/day, major depression): No statistically significant increase
Mean increase in QTc interval compared with placebo ([3]; meta‐analysis of study‐level trial data, sertraline 50‐200 mg/day): 3.0 millisecond
Incidence of QTc interval >500 ms [3, 15]: 6%
Incidence of QTc interval greater than 440 ms [3, 15]: 40%
Mean QTcF increase ([3]; prospective, cross‐sectional population‐based study (n = 42)): 1.7 milliseconds
QTcF, Least Squares Difference (Sertraline‐Placebo) [4, 16]: 6.957 ms
QTcF, Least Squares Mean [4, 16]: 414.299 ms
QTcF, Least Squares Difference (Sertraline‐Placebo) [4, 17]: 7.851 ms
QTcF, Least Squares Mean [4, 17]: 415.625 ms
QTcF, Least Squares Difference (Sertraline‐Placebo) [4, 18]: 7.824 ms
QTcF, Least Squares Mean [4, 18]: 416.465 ms
QTcF, Least Squares Difference (Sertraline‐Placebo) [4, 19]: 9.651 ms
QTcF, Least Squares Mean [4, 19]: 418.252 ms
QTcF, Least Squares Difference (Sertraline‐Placebo) [4, 20]: 7.377 ms
QTcF, Least Squares Mean [4, 20]: 411.285 ms
QTcF, Least Squares Difference (Sertraline‐Placebo) [4, 21]: 6.511 ms
QTcF, Least Squares Mean [4, 21]: 408.985 ms
QTcF, Least Squares Difference (Sertraline‐Placebo) [4, 22]: 5.597 ms
QTcF, Least Squares Mean [4, 22]: 408.732 ms
QTcF, Least Squares Difference (Sertraline‐Placebo) [4, 23]: 5.677 ms
QTcF, Least Squares Mean [4, 23]: 411.019 ms
QTcF, Least Squares Difference (Sertraline‐Placebo) [4, 24]: 7.346 ms
QTcF, Least Squares Mean [4, 24]: 414.294 ms
Time of longest placebo‐adjusted QTc interval ([4]; after dosing on day 14, sertraline 400 mg/day): 4 h
Subjects with absolute QTcF interval of ≥480 milliseconds [4, 25]: no participant
Subjects with maximum increase from baseline in QTcF of ≥60 milliseconds [4, 25]: no participant
Predose (time 0) QTcF, mean (standard deviation) ([4]; day 14 of sertraline treatment period): 414.9 (14.89) milliseconds
Fatigue [5]: 17 subjects
Headache [5]: 18 subjects
Insomnia [5]: 22 subjects
TEAEs considered treatment related [5]: 238
Total TEAEs reported [5]: 251
Subjects reporting ≥1 AE [5]: 45 subjects
Severe AE / SAE (psychiatric decompensation) ([5]; subject withdrawn, resolved the same day): single severe AE
Discontinued study treatment due to an AE (asthma) ([5]; while receiving sertraline treatment): One additional subject
CYP1A2 inhibitor class [6]: weak inhibitor
Effect on Kv1.5 [7]: voltage‐dependent inhibition
CYP2D6 inhibitor class [8]: weak to moderate inhibitor
Increase in exposure with hepatic impairment ([9]; hepatic impairment): 1.7 fold
Predicted mean ∆∆QTcF ([10]; at mean supratherapeutic Cmax of 234 ng/mL on day 14): 8.93 milliseconds
Predicted mean ∆ΔQTcF (change from baseline QTcF adjusted for placebo) ([10]; at mean therapeutic maximum plasma sertraline concentration of 86 ng/mL (200 mg/day)): 3.57 milliseconds
Predicted mean ∆∆QTcF ([10]; at peak plasma sertraline concentration 223.5 ng/mL): 8.55 milliseconds
Estimated slope of the regression for ∆QTcF versus plasma concentration [10]: 0.036 ms/ng/mL
CYP2C19 inhibitor class [11]: weak inhibitor
Cmax, geometric mean (%CV) [12, 26]: 11.39 (37) ng/mL
Cmin, arithmetic mean ± SD [12, 27]: 146.1 ± 57.093 ng/mL
Rac (observed accumulation ratio of AUC), arithmetic mean ± SD [12, 27]: 3.71 ± 0.82
Rac (observed accumulation ratio of AUC), geometric mean (%CV) [12, 27]: 3.62 (22.79)
Cmin, geometric mean (%CV) [12, 27]: 135.3 (43) ng/mL
Tmax ([12]; human, plasma, 50 mg): 5.06 h
AUC ([12]; human, plasma, 50 mg, AUC24, arithmetic mean ± SD, Day 1, sertraline 50 mg single dose): 162 ± 50.3 ng·h/mL
AUC ([12]; human, plasma, 50 mg, AUC24, geometric mean (%CV), Day 1, sertraline 50 mg single dose): 154 ng·h/mL
Cmax ([12]; human, plasma, 50 mg, arithmetic mean ± SD, Day 1, sertraline 50 mg single dose): 12.1 ± 4.34 ng/mL
Cmax ([12]; human, plasma, 50 mg, geometric mean (%CV), Day 1, sertraline 50 mg single dose, plasma, healthy subjects): 11.4 ng/mL
concentration at 4 h ([12]; human, plasma, 400 mg/day): 213 ng/mL
AUC ([12]; human, plasma, 400 mg/day, AUC24, arithmetic mean ± SD, Day 14, sertraline 400 mg/day multiple dose): 4650 ± 1580 ng·h/mL
AUC ([12]; human, plasma, 400 mg/day, AUC24, geometric mean (%CV), Day 14, sertraline 400 mg/day multiple dose): 4390 ng·h/mL
AUC(0-t) [12, 28]: 9190 ± 3720 ng·h/mL
AUC(0-t) ([12]; human, plasma, 400 mg/day, geometric mean (%CV), Day 14, sertraline 400 mg/day multiple dose): 8490 ng·h/mL
Cmax [12, 28]: 246 ± 80.6 ng/mL
Cmax ([12]; human, plasma, 400 mg/day, geometric mean (%CV), Day 14, sertraline 400 mg/day (200 mg BID, only morning dose on day 14), multiple dose, plasma): 234 ng/mL
Maximum tolerated dose [13]: 400 mg/day

COc1c(N2C[C@@H]3CCCN[C@@H]3C2)c(F)cc2c(=O)c(C(=O)O)cn(C3CC3)c12 [moxifloxacin]
Fatigue [5]: 7 subjects
Headache [5]: 11 subjects
Insomnia [5]: 11 subjects
TEAEs considered treatment related [5]: 92
Total TEAEs reported [5]: 105
Subjects reporting ≥1 AE [5]: 42 subjects
Population tmax [9]: 3 h

N[C@H]1CC[C@@H](c2ccc(Cl)c(Cl)c2)c2ccccc21 [N‐desmethylsertraline]
Effect on extracellular 5‐HT levels [14]: lack of effect
Estimated slope of the regression for ∆QTcF versus plasma concentration [10]: 0.036 ms/ng/mL
AUC24, arithmetic mean ± SD [12, 29]: 79.03 ± 19.199 ng·h/mL
AUC24, geometric mean (%CV) [12, 29]: 76.87 (24) ng • h/mL
Cmax, arithmetic mean ± SD [12, 29]: 4.428 ± 1.3189 ng/mL
MR (metabolite‐to‐parent ratio for AUC24), arithmetic mean ± SD [12, 29]: 0.5493 ± 0.1743
tmax, median (range) [12, 29]: 12.0 (5.00‐23.9) h
Cmax, geometric mean (%CV) [12, 26]: 4.269 (27) ng/mL
MR (metabolite‐to‐parent ratio for AUC24), geometric mean (%CV) [12, 29]: 0.5222 (34)
Cmax, geometric mean (%CV) ([12]; Day 14, sertraline 400 mg/day (200 mg BID, only morning dose on day 14), multiple dose, plasma): 249.6 (23) ng/mL
AUC24, arithmetic mean ± SD [12, 27]: 5342 ± 1109.5 ng·h/mL
AUC24, geometric mean (%CV) [12, 27]: 5227 (22) ng • h/mL
AUClast, arithmetic mean ± SD [12, 27]: 13500 ± 3225.2 ng·h/mL
AUClast, geometric mean (%CV) [12, 27]: 13110 (25) ng • h/mL
Cmin, arithmetic mean ± SD [12, 27]: 188.4 ± 39.567 ng/mL
MR (metabolite‐to‐parent ratio for AUC24), arithmetic mean ± SD [12, 27]: 1.283 ± 0.3075
tmax, median (range) [12, 27]: 8.00 (1.07‐12.1) h
Cmin, geometric mean (%CV) [12, 27]: 184.1 (23) ng/mL
MR (metabolite‐to‐parent ratio for AUC24), geometric mean (%CV) [12, 27]: 1.248 (24)

Reference: publication PMC7187253 (Clinical Pharmacology in Drug Development, 2019)
